A short description of the experiment: Reduction of viral RNA and protein in Huh7 cells containing HCV sub-genomic replicon.

pEC50: −log10 of the molar value.

By pEC50 is commonly meant the EC50 on a negative log10 scale, so that one unit is a factor of ten. Read a low pEC50 as a large EC50.

`CCC[C@]1(CC(=O)O)OCCc2c1sc1c(C)cc(F)c(C#N)c21` [((R)-5-cyano-6-fluoro-8-methyl-1-propyl-3,4-dihydro-1H-benzo[4,5]thieno[2,3-c]pyran-1-yl)-acetic acid] showed a pEC50 of 5.49.

Source of the values: BindingDB's records for doi:10.1016/j.bmcl.2005.08.114 (Wyeth Research, 2005).
